Earlier results in US20230303712A1, “METHODS OF TREATING GLIOBLASTOMA” (Ramot at Tel-Aviv University Ltd., priority 2020, published 2023).

T1: L-Selectin (Homo sapiens, UniProt P14151)
T1 sequence (P14151 39-372): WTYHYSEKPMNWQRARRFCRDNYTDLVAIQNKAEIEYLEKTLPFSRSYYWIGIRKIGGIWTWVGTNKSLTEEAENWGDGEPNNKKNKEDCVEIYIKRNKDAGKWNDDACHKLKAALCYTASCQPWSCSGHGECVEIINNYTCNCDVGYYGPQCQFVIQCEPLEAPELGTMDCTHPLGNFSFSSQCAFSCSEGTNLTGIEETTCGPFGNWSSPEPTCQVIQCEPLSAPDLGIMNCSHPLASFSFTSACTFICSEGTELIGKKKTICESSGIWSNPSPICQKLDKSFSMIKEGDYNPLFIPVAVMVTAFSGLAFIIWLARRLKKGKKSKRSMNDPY

T2: P-Selectin (Homo sapiens, UniProt P16109)
T2 sequence (P16109 42-830): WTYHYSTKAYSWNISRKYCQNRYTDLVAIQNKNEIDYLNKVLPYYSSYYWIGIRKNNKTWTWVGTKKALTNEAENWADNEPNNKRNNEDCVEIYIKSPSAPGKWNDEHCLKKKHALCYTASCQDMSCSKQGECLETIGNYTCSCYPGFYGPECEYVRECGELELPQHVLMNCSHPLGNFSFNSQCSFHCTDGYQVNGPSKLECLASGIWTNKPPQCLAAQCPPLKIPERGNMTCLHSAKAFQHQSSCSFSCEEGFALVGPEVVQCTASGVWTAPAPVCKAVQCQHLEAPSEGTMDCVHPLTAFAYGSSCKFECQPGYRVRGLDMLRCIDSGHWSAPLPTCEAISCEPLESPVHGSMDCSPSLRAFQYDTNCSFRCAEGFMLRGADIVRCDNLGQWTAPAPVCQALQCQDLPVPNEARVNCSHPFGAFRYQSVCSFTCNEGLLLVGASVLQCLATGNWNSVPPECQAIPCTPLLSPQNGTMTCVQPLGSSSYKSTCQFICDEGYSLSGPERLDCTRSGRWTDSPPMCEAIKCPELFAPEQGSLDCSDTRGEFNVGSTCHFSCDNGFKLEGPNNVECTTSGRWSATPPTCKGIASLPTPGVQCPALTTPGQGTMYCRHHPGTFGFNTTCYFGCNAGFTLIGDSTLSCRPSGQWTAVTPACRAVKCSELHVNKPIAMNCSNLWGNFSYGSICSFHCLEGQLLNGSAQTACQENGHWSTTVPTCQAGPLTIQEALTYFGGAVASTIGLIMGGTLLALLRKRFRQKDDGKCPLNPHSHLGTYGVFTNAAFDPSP

T3: E-Selectin (Homo sapiens, UniProt P16581)
T3 sequence (P16581 22-610): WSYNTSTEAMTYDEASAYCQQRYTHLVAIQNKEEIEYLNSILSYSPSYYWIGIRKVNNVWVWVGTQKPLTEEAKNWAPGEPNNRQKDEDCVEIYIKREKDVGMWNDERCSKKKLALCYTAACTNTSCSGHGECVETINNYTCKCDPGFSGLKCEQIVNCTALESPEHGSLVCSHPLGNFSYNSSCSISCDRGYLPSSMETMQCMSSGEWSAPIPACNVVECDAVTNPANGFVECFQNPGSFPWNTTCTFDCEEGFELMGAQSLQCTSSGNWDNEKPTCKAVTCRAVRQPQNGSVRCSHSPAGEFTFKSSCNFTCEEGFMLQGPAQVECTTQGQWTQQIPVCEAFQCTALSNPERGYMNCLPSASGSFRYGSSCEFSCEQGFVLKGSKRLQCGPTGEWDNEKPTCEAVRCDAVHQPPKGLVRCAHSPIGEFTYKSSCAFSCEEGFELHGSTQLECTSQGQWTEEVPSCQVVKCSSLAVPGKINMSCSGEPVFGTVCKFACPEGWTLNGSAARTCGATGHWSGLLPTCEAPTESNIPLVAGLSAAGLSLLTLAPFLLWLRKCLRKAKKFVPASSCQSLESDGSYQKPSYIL


Tests used:
L-Selectin = target: T1, L-Selectin; conditions: in humans in vitro; cited from earlier work
P-Selectin = target: T2, P-Selectin; conditions: in humans in vitro; cited from earlier work
E-Selectin = target: T3, E-Selectin; conditions: in humans in vitro; cited from earlier work
[1] = different animal models; cited from earlier work
[2] = administered systemically; cited from earlier work

| Molecule | L-selectin-dependent adhesion (L-Selectin) | P-selectin-dependent adhesion (P-Selectin) | E-selectin-dependent adhesion (E-Selectin) | anti-inflammatory effects [1] | tolerability in patients [2] |
| --- | --- | --- | --- | --- | --- |
| O=C(O)Cc1cccc(-c2cc(CCCCCCc3ccc(OC4O[C@H](CO)C(O)[C@H](O)[C@@H]4O)c(-c4cccc(CC(=O)O)c4)c3)ccc2OC2O[C@H](CO)C(O)[C@H](O)[C@@H]2O)c1 (stereo partly drawn) [Bimosiamose (TBC1269)] | inhibit | inhibit | inhibit | anti-inflammatory effects | – |
| inclacumab: monoclonal antibody directed towards P-selectin | – | – | – | – | well tolerated |
| crizanlizumab: Humanized monoclonal anti-P-selectin antibody (antibody, chains of the INN, looked up, V domains shown) VH: QVQLVQSGAEVKKPGASVKVSCKVSGYTFTSYDINWVRQAPGKGLEWMGWIYPGDGSIKYNEKFKGRVTMTVDKSTDTAYMELSSLRSEDTAVYYCARRGEYGNYEGAMDYWGQGTLVTVSS VL: DIQMTQSPSSLSASVGDRVTITCKASQSVDYDGHSYMNWYQQKPGKAPKLLIYAASNLESGVPSRFSGSGSGTDFTLTISSLQPEDFATYYCQQSDENPLTFGGGTKVEIK | – | – | – | – | well tolerated |
